Measurements: paper PMC11100219, “Dual-function antimicrobial-antibiofilm peptide hybrid to tackle biofilm-forming Staphylococcus epidermidis” (Annals of Clinical Microbiology and Antimicrobials, 2024)
Values after ≈ are worked out from the molar mass of the structure shown. Residues, ends and D or L forms follow the SMILES beside them.

Tests used:
[1] = tested on: S. epidermidis (ATCC 35984) biofilm; test: Biofilm-formation inhibitory activity, crystal violet staining; assay type: cell-based, Staphylococcus epidermidis; conditions: CV staining, TSB, 10^6 CFU/mL, 24 h, 37°C, 0.98-250 µg/mL; for MBIC50: minimum concentration inhibiting biofilm formation more than 50%; for MBIC90: minimum concentration inhibiting biofilm formation more than 90%
Procedure: The biofilm inhibitory activity of peptide derivatives was assessed by modified crystal violet (CV) staining. Briefly, the pellet of S. epidermidis (ATCC 35984) was collected through centrifugation of bacterial suspensions grown overnight at 2,500 × g for 5 min. Subsequently, the pellet was resuspended and diluted with TSB to a final concentration of 10^6 CFU/mL. Then, 50 µL of these diluted suspensions was transferred to 96-well microplates containing same volume of peptide derivatives in 10 mM phosphate buffer saline (PBS; Caisson Labs, USA), with concentrations ranging from 0.98 to 250 µg/mL. Vancomycin was used as positive control while TSB medium without bacteria was used as negative control. After 24 h of incubation and reaching static growth at 37°C, culture media as well as planktonic cells were removed, then the biofilm in each well was washed thrice with 0.85% NaCl. For CV staining, biofilms were fixed with 95% ethanol and stained with a 0.1% (v/v) CV solution for 15 min. After removal of excess dye, each well was washed thrice with 0.85% NaCl and resuspended in 95% ethanol to dissolve bound dye. Absorbance was determined at 570 nm using a Multiskan SkyHigh microplate reader (Thermo Scientific™, Singapore). All experiments were done in six technical replicates and repeated independently three times. Minimum biofilm inhibitory concentrations at 50% and 90% (MBIC50 and MBIC90) refers to concentrations of the peptide at which the inhibition of biofilm was at least 50% and 90%, respectively.

[2] = tested on: Acinetobacter baumanii MT strain; test: Broth microdilution MIC / MBC; assay type: cell-based; conditions: 24 h, 37°C; for MIC: broth microdilution, MHB, 0.98-250 µg/mL, visible inspection; for MBC: plating of non-turbid wells on TSA
Procedure: (§1) The minimal inhibitory concentrations (MICs) of peptide derivatives versus planktonic bacteria were assessed using a modification of the broth microdilution assay previously described in the National Committee for Clinical Laboratory Standards (NCCLS). In brief, bacteria at mid-logarithmic growth were collected by centrifugation at 2,500 × g for 5 min. Subsequently, the pellet was resuspended and adjusted in Mueller-Hinton Broth (MHB; BD Bacto™, USA) to an OD620 of 0.05. Fifty µL of bacterial suspensions was transferred to 96-well microplates. Later, 50 µL of peptide derivatives at 0.98–250 µg/mL in 10 mM PBS, was added to wells and incubated for 24 h at 37°C with continuous shaking at 220 rpm. […] The experiments were done in three technical replicates and repeated independently.
(§2) To determine minimal bactericidal concentrations (MBCs) of the peptides, 50 µL of supernatant from non-turbid wells was plated on TSA, and the number of colony-forming units (CFUs) was observed after 24 h of incubation at 37°C. MBC was defined as the minimum concentration of peptide at which no bacterial colony was observed on the plate.

[3] = tested on: Bacillus cereus ATCC 11778; test: Broth microdilution MIC / MBC; assay type: cell-based; conditions: 24 h, 37°C; for MIC: broth microdilution, MHB, 0.98-250 µg/mL, visible inspection; for MBC: plating of non-turbid wells on TSA
Procedure: as §1, §2

[4] = tested on: Escherichia coli ATCC 25922; test: Broth microdilution MIC / MBC; assay type: cell-based; conditions: 24 h, 37°C; for MBC: plating of non-turbid wells on TSA
Procedure: as §1, §2

[5] = tested on: Listeria monocytogenes 10403s; test: Broth microdilution MIC / MBC; assay type: cell-based; conditions: 24 h, 37°C; for MIC: broth microdilution, MHB, 0.98-250 µg/mL, visible inspection; for MBC: plating of non-turbid wells on TSA
Procedure: as §1, §2

[6] = tested on: Pseudomonas aeruginosa ATCC 27853; test: Broth microdilution MIC / MBC; assay type: cell-based; conditions: 24 h, 37°C; for MIC: broth microdilution, MHB, 0.98-250 µg/mL, visible inspection; for MBC: plating of non-turbid wells on TSA
Procedure: as §1, §2

[7] = tested on: Salmonella Typhimurium ATCC 13311; test: Broth microdilution MIC / MBC; assay type: cell-based; conditions: 24 h, 37°C; for MIC: broth microdilution, MHB, 0.98-250 µg/mL, visible inspection; for MBC: plating of non-turbid wells on TSA
Procedure: as §1, §2

[8] = tested on: Staphylococcus aureus ATCC 25923; test: Broth microdilution MIC / MBC; assay type: cell-based; conditions: 24 h, 37°C
Procedure: as §1, §2

[9] = tested on: Staphylococcus epidermidis ATCC 35984; test: Broth microdilution MIC / MBC; assay type: cell-based; conditions: 24 h, 37°C; for MIC: broth microdilution, MHB, 0.98-250 µg/mL, visible inspection; for MBC: plating of non-turbid wells on TSA
Procedure: as §1, §2

[10] = tested on: human red blood cells (hRBCs); test: Hemolysis activity (hemoglobin release); assay type: cell-based; conditions: 1 h, 37°C
Procedure: The effect of peptides on human red blood cells (hRBCs) was assessed by observing the release of hemoglobin upon treated with peptide. Briefly, the hRBCs were obtained from healthy volunteers and subsequently diluted in 10 mM PBS to a concentration of 2% hRBCs. An equal volume of 2% hRBCs and peptide at concentration of 0.98–250 µg/mL in 10 mM PBS mixtures were incubated for 1 h at 37°C. Following incubation, the suspension was centrifuged, then supernatants were collected and transferred to 96-well microplates for measurement of absorbance at OD of 405 nm (OD405). This study was performed in accordance with the Thammasat University Ethics Committee (COA No. 066/2562). Written informed consent was obtained from all volunteers.

[11] = tested on: all gram-positive bacterial strains; test: Mean MIC and therapeutic index, gram-positive strains; assay type: cell-based; conditions: four gram-positive strains
Procedure: as §1
(§3) The therapeutic index (TI) is widely used for evaluating a peptide’s efficacy and safety. It is the ratio between the minimum hemolytic concentration (MHC, the concentration causing 10% hemolysis) and the geometric mean (GM) value of the MIC [15]. […] While, both lysine-substituted peptides (BiF2_7K and BiF2_5K7K) had higher TIs against all tested biofilm-forming bacteria than did the two parent peptides, and the TI of BiF2_5K7K was higher than that of BiF2_7K.

[12] = tested on: all gram-negative bacterial strains; test: Mean MIC and therapeutic index, gram-negative strains; assay type: cell-based; conditions: four gram-negative strains
Procedure: as §1, §3

biofilm-forming bacteria = test: Antibacterial activity against the panel of planktonic biofilm-forming bacteria; assay type: cell-based
Procedure: The biofilm-forming bacteria, including S. epidermidis ATCC 35984, Staphylococcus aureus ATCC 25923, Bacillus cereus ATCC 11778, Listeria monocytogenes 10403s, Pseudomonas aeruginosa ATCC 27853, Salmonella Typhimurium ATCC 13311, Escherichia coli ATCC 25922 and Acinetobacter baumanii MT strain, were used. All bacterial strains were grown on tryptic soy agar (TSA; BD Bacto™, USA) except E. coli and L. monocytogenes which were cultured on Luria agar (LA) and TSA supplemented with 0.6% Yeast Extract (TSAYE), respectively, at 37°C overnight. Subsequently, isolated colonies were inoculated and cultured in 5 mL of tryptic soy broth (TSB; BD Bacto™, USA), Luria Broth (LB), or TSB supplemented with 0.6% Yeast Extract (TSBYE) at 37°C for 16–18 h.
The minimal inhibitory concentrations (MICs) of peptide derivatives versus planktonic bacteria were assessed using a modification of the broth microdilution assay previously described in the National Committee for Clinical Laboratory Standards (NCCLS). In brief, bacteria at mid-logarithmic growth were collected by centrifugation at 2,500 × g for 5 min. Subsequently, the pellet was resuspended and adjusted in Mueller-Hinton Broth (MHB; BD Bacto™, USA) to an OD620 of 0.05. Fifty µL of bacterial suspensions was transferred to 96-well microplates. […]

[13] = tested on: human lung fibroblast MRC-5 cell lines (ATCC CCL-171); test: MTT cytotoxicity assay; assay type: cell-based; conditions: MRC-5, 24 h
Procedure: The toxicity of peptide BiF2_5K7K against human lung fibroblast MRC-5 cell lines (ATCC CCL-171) was investigated by MTT colorimetric assay. Briefly, MRC-5 cells were cultured in Minimum Essential Medium [MEM; supplemented with 10% heat-inactivated FBS and 1% Penicillin-Streptomycin] in 5% CO2 at 37°C. Following an overnight incubation, MRC-5 cells were diluted to 10,000 cells/well and placed in 96-well microplates. Subsequently, they were exposed to BiF2_5K7K at 0.98 to 250 µg/mL. After incubation for 24 h, MTT solution (0.4 mg/mL) was added to each well and incubated for an additional 3 h under 5% CO2 at 37°C. The supernatant was then removed and 100 µL DMSO added, and absorbance was measured at 570 nm using a microplate reader.

[14] = broth microdilution, MHB, 0.98-250 µg/mL, visible inspection

SMILES	MBIC50 [1] [µg/mL]	MBIC90 [1] [µg/mL]	MIC [2] [µg/mL]	MBC [2] [µg/mL]	MIC [3] [µg/mL]	MBC [3] [µg/mL]	MBC [4] [µg/mL]	MIC [5] [µg/mL]	MBC [5] [µg/mL]	MIC [6] [µg/mL]	MBC [6] [µg/mL]	MIC [7] [µg/mL]	MBC [7] [µg/mL]	MIC [9] [µg/mL]	MBC [9] [µg/mL]	GM +, geometric mean of MIC values from all gram-positive bacterial strains [11] [µg/mL]	GM-, geometric mean of MIC values from all gram-negative bacterial strains [12] [µg/mL]	further results
CC[C@H](C)[C@H](NC(=O)[C@H](CC(C)C)NC(=O)[C@H](CCCCN)NC(=O)[C@@H](NC(=O)[C@H](CC(C)C)NC(=O)[C@@H](N)Cc1ccccc1)C(C)C)C(=O)N[C@@H](CC(C)C)C(N)=O [BiF] (H-FLVKLIL-NH2; N-terminus assumed)	125	>250	> 250	> 250	> 250	> 250	> 250	> 250	> 250	> 250	> 250	> 250	> 250	> 250	> 250	>250	>250	MIC [4, 14]: > 250 µg/mL; MIC [8, 14]: > 250 µg/mL; MBC ([8]; plating of non-turbid wells on TSA): > 250 µg/mL; hRBCs lysed (hemolysis) ([10]; at 31.25 µg/mL): more than 20%; hemolytic activity ([10]; at 250 µg/mL (maximum concentration tested)): 100%; MHC, minimum hemolytic concentration ([10]; peptide concentration causing 10% hemolysis of hRBCs, 2% hRBCs in 10 mM PBS, OD405): 15.63 µg/mL; antibacterial activity against target bacteria (biofilm-forming bacteria): no antibacterial activity
CC[C@H](C)[C@H](NC(=O)CN)C(=O)NCC(=O)N[C@@H](C)C(=O)N[C@H](C(=O)N[C@@H](CC(C)C)C(=O)N[C@@H](CCCCN)C(=O)N[C@H](C(=O)N[C@@H](CC(C)C)C(=O)N[C@H](C(=O)N[C@H](C(=O)NCC(=O)N[C@@H](CC(C)C)C(=O)N1CCC[C@H]1C(=O)N[C@@H](C)C(=O)N[C@@H](CC(C)C)C(=O)N[C@H](C(=O)N[C@@H](CO)C(=O)N[C@@H](Cc1c[nH]c2ccccc12)C(=O)N[C@H](C(=O)N[C@@H](CCCCN)C(=O)N[C@@H](CCCNC(=N)N)C(=O)N[C@@H](CCCCN)C(=O)N[C@@H](CCCNC(=N)N)C(=O)N[C@@H](CCC(N)=O)C(=O)N[C@@H](CCC(N)=O)C(N)=O)[C@@H](C)CC)[C@@H](C)CC)[C@@H](C)O)[C@@H](C)O)C(C)C)C(C)C [Melittin, melittin, reference compound]			7.81 (≈ 2.74 µM)	7.81 (≈ 2.74 µM)	3.91 (≈ 1.37 µM)	3.91 (≈ 1.37 µM)	31.2 (≈ 11 µM)	3.91 (≈ 1.37 µM)	3.91 (≈ 1.37 µM)	15.6 (≈ 5.49 µM)	15.6 (≈ 5.49 µM)	3.91 (≈ 1.37 µM)	3.91 (≈ 1.37 µM)	15.6 (≈ 5.49 µM)	15.6 (≈ 5.49 µM)	6.84	14.65	lysis of hRBCs ([10]; at 3.91 µg/mL): completely lysed; cytotoxic effect [13]: strong dose-dependent cytotoxic effect
CN[C@H](CC(C)C)C(=O)N[C@H]1C(=O)N[C@@H](CC(N)=O)C(=O)N[C@H]2C(=O)N[C@H]3C(=O)N[C@H](C(=O)N[C@H](C(=O)O)c4cc(O)cc(O)c4-c4cc3ccc4O)[C@H](O)c3ccc(c(Cl)c3)Oc3cc2cc(c3O[C@@H]2O[C@H](CO)[C@@H](O)[C@H](O)[C@H]2O[C@H]2C[C@](C)(N)[C@H](O)[C@H](C)O2)Oc2ccc(cc2Cl)[C@H]1O [vancomycin, reference compound]	3.91	3.91																
